Consider 4 molecules from patent US20170081286A1, “2-[[[2-[(HYDROXYACETYL)AMINO]-4-PYRIDINYL]METHYL]THIO]-N-[4-(TRIFLUOROMETHOXY)PHENYL]-3-PYRIDINECARBOXAMIDE BENZENESULFONATE, CRYSTAL OF SAME, CRYSTAL POLYMORPH THEREOF, AND METHODS FOR PRODUCTION THEREOF” (Santen Pharmaceutical Co., Ltd., priority 2009, published 2017).

The subject of data set [1] is Crl:CD (SD) rat. The data set can be described thus: Rat 4-week repeated oral administration toxicity test of benzenesulfonate of compound A, stomach histopathology. The class given is in vivo. The conditions noted are these: once a day, 4 weeks, 30 mg/kg. The method, then: (§1) i) To Crl:CD (SD) rat was orally administered compound A ([…]) suspended in a 1% methylcellulose liquid once a day for 7 days. ii) After completion of the administration, the rat was exsanguinated to death under ether anesthesia, then the stomach was removed, fixed in a 10% neutral buffered formalin aqueous solution, and then stained with hematoxylin-eosin to prepare a specimen, and the change in the stomach was observed histopathologically. 2) Rat 4-week repeated oral administration toxicity test of benzenesulfonate of compound A
i) To Crl:CD (SD) rat was orally administered benzenesulfonate of compound A ([…]) suspended in a 1% methylcellulose liquid once a day for 4 weeks. ii) After completion of the administration, the rat was exsanguinated to death under ether anesthesia, then the stomach was removed, fixed in a 10% neutral buffered formalin aqueous solution, and then stained with hematoxylin-eosin to prepare a specimen, and the change in the stomach was observed histopathologically.

Data set [2] in a line: Storage stability test of salts of compound A (1-week preliminary stability test, content by HPLC). It counts as physicochemical. The note with it: for decomposition / decrease in purity on storage (in words): 1-week preliminary stability test (severe test), light, humidity and other factors; for content of salt of compound A after storage, relative to the content before storage of 100%: HPLC. Here is the method: For examining the storage stability for these salts with compound A, a 1-week preliminary stability test (severe test) was executed.
<Storage Stability Tests for Benzenesulfonate, Methanesulfonate and p-Toluenesulfonate of Compound A (1-Week Preliminary Stability Test)>
For benzenesulfonate, methanesulfonate and p-toluenesulfonate of compound A, after storing under the conditions of 40° C. 75% RH, 60° C. or light (1000 lux/hr), the content of each salt of compound A was measured by HPLC. The percentage of change, relative to the content before storage of 100%, was calculated.

The test system of data set [3] is VEGF-induced HUVEC proliferation. The note with it: described in PTL 1; cited from earlier work.
For data set [4], the system named is Crl:CD (SD) rat. Put plainly: Rat 1-week repeated oral administration toxicity test of compound A (free body), stomach histopathology. It counts as in vivo. The note with it: once a day, 1 week (7 days), 30 mg/kg. Here is the method:
1) Rat 1-week repeated oral administration toxicity test of compound A (free body)
as §1

Data set [5] deals with rat choroidal neovascularization model. The conditions noted are these: described in PTL 1; cited from earlier work.
The test system of data set [6] is tumor-bearing mouse model. The note with it: described in PTL 1; cited from earlier work.
For data set [7], the system named is rat adjuvant arthritis model. The conditions noted are these: described in PTL 1; cited from earlier work.

As for `O=C(CO)Nc1cc(CSc2ncccc2C(=O)Nc2ccc(OC(F)(F)F)cc2)ccn1.O=S(=O)(O)c1ccccc1` [benzenesulfonate of compound A, benzenesulfonate of 2-[[[2-[(hydroxyacetyl)amino]-4-pyridinyl]methyl]thio]-N-[4-(trifluoromethoxy)phenyl]-3-pyridinecarboxamide], the “mineral deposition in the stomach” value in the data set with Crl:CD (SD) rat [1] was “not observed”. In data set [2], the “decomposition / decrease in purity on storage (in words)” value is “did not show a decrease in purity”. Moreover, the “content of salt of compound A after storage, relative to the content before storage of 100%” value in data set [2] (40° C. 75% RH/1 week) was 100.0%; in data set [2] (60° C./1 week), 100.0%; in data set [2] (1000 lux/hr, 1 week), 100.0%.
As to `O=C(CO)Nc1cc(CSc2ncccc2C(=O)Nc2ccc(OC(F)(F)F)cc2)ccn1` [compound A, 2-[[[2-[(hydroxyacetyl)amino]-4-pyridinyl]methyl]thio]-N-[4-(trifluoromethoxy)phenyl]-3-pyridinecarboxamide], the “cell proliferation inhibiting effect” value in data set [3] is “exhibits a cell proliferation inhibiting effect”. Besides, the “mineral deposition in the stomach” value in the data set on Crl:CD (SD) rat [4] is listed as “observed”. Further, the “choroidal neovascularization inhibiting effect” value in data set [5] is “exhibits a choroidal neovascularization inhibiting effect”. For the same molecule, the “tumor proliferation suppressing effect” value in data set [6] was “exhibits a tumor proliferation suppressing effect”. Also, the “paw edema suppressing effect” value in data set [7] is on record as “exhibits a paw edema suppressing effect”.
Regarding `CS(=O)(=O)O.O=C(CO)Nc1cc(CSc2ncccc2C(=O)Nc2ccc(OC(F)(F)F)cc2)ccn1` [methanesulfonate of compound A], in data set [2], the “decomposition / decrease in purity on storage (in words)” value is listed as “decomposed by light”. In addition, the “content of salt of compound A after storage, relative to the content before storage of 100%” value was 99.8% in data set [2] (40° C. 75% RH/1 week); 99.9% in data set [2] (60° C./1 week); 99.1% in data set [2] (1000 lux/hr, 1 week).
For p-toluenesulfonate, in that order: “decomposed by humidity”, 92.3%, 99.3% and 99.8%.
